Experimental data from PMC7307906, “Macrocyclic Modalities Combining Peptide Epitopes and Natural Product Fragments” (Journal of the American Chemical Society, 2020).

Assays:
[1] = biological target: T1, human MC1R (Homo sapiens, UniProt Q01726); test: cAMP assay (LANCE) in T-Rex-293 cells expressing MC1R; type: cell-based
T1 construct: expressed in transfected cells

[2] = biological target: T2, human MC3R (Homo sapiens, UniProt P41968); test: cAMP assay (LANCE) in T-Rex-293 cells expressing MC3R; type: cell-based; details: cAMP assay; mean (± SEM) of at least three independent experiments; read-out: EC50 hMC3R cAMP
T2 construct: expressed in transfected cells

[3] = biological target: T3, human MC4R (Homo sapiens, UniProt P32245); test: cAMP assay (LANCE) in T-Rex-293 cells expressing MC4R; type: cell-based; details: cAMP assay; mean (± SEM) of at least three independent experiments; read-out: EC50 hMC4R cAMP
T3 construct: expressed in transfected cells

[4] = biological target: T3, human MC4R; test: Melanocortin receptor radioligand binding (SPA, [125I]-NDP-α-MSH displacement), MC4R; details: competitive binding, mean (± SEM) of at least three independent experiments, read-out: IC50 hMC4R binding
[5] = biological target: T2, human MC3R; test: Melanocortin receptor radioligand binding (SPA, [125I]-NDP-α-MSH displacement), MC3R; details: competitive binding, mean (± SEM) of at least three independent experiments, read-out: IC50 hMC3R binding
[6] = biological target: T1, human MC1R; test: Melanocortin receptor radioligand binding (SPA, [125I]-NDP-α-MSH displacement), MC1R; details: competitive binding, mean (± SEM) of at least three independent experiments, read-out: IC50 hMC1R binding
[7] = biological target: T4, human MC5R (Homo sapiens, UniProt P33032); test: Melanocortin receptor radioligand binding (SPA, [125I]-NDP-α-MSH displacement), MC5R; details: competitive binding, [125I]-NDP-α-MSH; mean (± SEM) of at least three independent experiments; read-out: IC50 hMC5R binding
T4 construct: expressed in transfected cells; host or cells: HEK293-6E suspension cells, transient expression; membranes

[8] = biological target: hMC1−5R; test: Melanocortin receptor radioligand binding, result stated for all receptors together; set-up: species or system human
Description: Example concentration response curves for selected PepNats in MC1R, MC3R, MC4R, MC5R radioligand binding assays and MC1R, MC3R, MC4R cAMP assays. Responses were normalized to reference agonist NDP -α-MSH and presented as % effect of control, with full competition in binding defined as -100% and full agonism in cAMP assays defined as […]
binding assay. Threshold to define a compound as active was set to -30% in binding assays and 20% in cAMP assays respectively. Data are from at least three independent experiments and error bars represent ± Standard Error of the […]
% s p e c ific b in d in g o f
(1 picture or pasted object on this page, not shown here) […]
expression, MC1R and MC4R transfected cells were treated with 0.1 ng /mL and MC3R transfected cells with 10 ng/mL doxycyclin, for 24 h before assay.
Melanocortin receptor radioligand binding and cAMP assays.
Binding and cAMP assays were performed as described by Durek et al.7 “A 384-well format scintillation proximity assay (SPA) was used to identify compounds that show competitive binding to the human Melanocortin receptor 1,3,4 or 5 ligand binding domain (LBD). […] The inhibition of the scintillation signal by displacement of [ 125I]- NDP-α-MSH by test compounds were detected by a 1450 MicroBeta Trilux scintillation counter […]
Plates were incubated for 16-23 h in the dark at room temperature before reading on a 1450 […]
Measurements of cAMP production were performed using LANCE® cAMP kits (PerkinElmer) in a total assay volume of 12 µl/well. […] The reaction was stopped with detection buffer containing 10 µM Biotin-cAMP and 15 µM LANCE Eu-W8044 labelled streptavidin (PerkinElmer LANCE cAMP kit). cAMP production was detected by homogenous time resolved fluorescence (HTRF) (λex = 340 nm, λem = 665 and 615 nm) using a Pherastar (BMG Labtech).
PepNats, literature compounds and references were tested in ten-point concentration response (½ log serial dilution) with 100, 10 or 1 µM as final start concentrations. Raw data output was analyzed in Screener software (Genedata AG) and pEC50 and pIC50 values calculated using a four-

T1 sequence (Q01726 whole entry): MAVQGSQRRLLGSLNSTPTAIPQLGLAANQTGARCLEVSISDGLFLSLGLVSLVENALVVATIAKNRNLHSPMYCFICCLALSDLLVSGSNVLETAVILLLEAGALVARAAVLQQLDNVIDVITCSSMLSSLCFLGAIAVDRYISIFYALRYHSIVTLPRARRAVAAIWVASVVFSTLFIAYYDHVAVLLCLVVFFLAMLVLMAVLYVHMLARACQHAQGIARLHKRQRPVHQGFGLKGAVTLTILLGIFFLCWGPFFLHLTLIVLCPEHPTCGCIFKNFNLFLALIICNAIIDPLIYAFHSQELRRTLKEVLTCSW
T3 sequence (P32245 whole entry): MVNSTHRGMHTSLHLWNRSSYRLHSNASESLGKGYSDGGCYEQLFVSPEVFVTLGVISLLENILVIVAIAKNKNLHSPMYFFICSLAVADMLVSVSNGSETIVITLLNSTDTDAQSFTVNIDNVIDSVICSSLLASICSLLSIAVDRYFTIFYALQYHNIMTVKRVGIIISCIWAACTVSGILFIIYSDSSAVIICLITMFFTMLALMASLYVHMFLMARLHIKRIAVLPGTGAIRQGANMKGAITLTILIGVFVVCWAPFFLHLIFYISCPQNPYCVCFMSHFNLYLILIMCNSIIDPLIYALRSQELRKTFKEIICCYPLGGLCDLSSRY
T2 sequence (P41968 whole entry): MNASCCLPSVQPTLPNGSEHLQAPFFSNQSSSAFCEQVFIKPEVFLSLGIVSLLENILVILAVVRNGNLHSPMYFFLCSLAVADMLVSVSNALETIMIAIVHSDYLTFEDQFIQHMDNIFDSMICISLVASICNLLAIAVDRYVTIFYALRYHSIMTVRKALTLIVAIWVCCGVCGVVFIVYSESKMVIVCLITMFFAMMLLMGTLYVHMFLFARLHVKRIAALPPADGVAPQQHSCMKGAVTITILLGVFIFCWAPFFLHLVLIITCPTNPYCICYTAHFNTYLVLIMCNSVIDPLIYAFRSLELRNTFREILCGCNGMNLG
T4 sequence (P33032 whole entry): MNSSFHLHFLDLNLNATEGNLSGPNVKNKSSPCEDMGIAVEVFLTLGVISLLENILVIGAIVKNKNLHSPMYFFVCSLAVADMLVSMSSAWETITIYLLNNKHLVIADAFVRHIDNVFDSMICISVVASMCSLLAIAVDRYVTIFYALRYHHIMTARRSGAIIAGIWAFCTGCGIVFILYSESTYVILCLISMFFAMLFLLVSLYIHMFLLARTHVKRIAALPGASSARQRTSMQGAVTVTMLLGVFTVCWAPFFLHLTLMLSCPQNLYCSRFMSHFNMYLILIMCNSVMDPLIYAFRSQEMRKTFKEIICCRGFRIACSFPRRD

CN1C(=O)[C@H]2N[C@@H](c3ccc(cc3)C(=O)NCCCC[C@@H](C(=O)N[C@@H](Cc3ccc(O)cc3)C(N)=O)NC(=O)[C@H](CC(N)=O)NC(=O)[C@@H](Cc3ccccc3)NC(=O)[C@@H](Cc3ccccc3)NC(=O)[C@H](CCCNC(=N)N)NC(=O)[C@@H]1Cc1ccccc1)[C@H]1C(=O)N(c3ccccc3)C(=O)[C@H]12 [K1-minor, [II-FRffNK ]Y]
% Effect hMC1R cAMP at 100 µM ([1]; % effect at 100 µM, compounds not reaching an upper plateau (§)): 30%
EC50 ([1]; cAMP assay, mean (± SEM) of at least three independent experiments, read-out: EC50 hMC1R cAMP): > 100 µM
EC50 [2]: > 100 µM
EC50 [3]: > 100 µM
IC50 [4]: > 100 µM
IC50 [5]: > 100 µM
IC50 [6]: > 100 µM
IC50 [7]: > 100 µM
IC50 ([8]; competitive binding, one bound printed for all receptors): > 100 µM
binding to the MC receptors (in words) ([8]; human MC receptors, radioligand binding): did not bind to any of the receptors
